From publication PMC11243177, “The Discovery, Molecular Cloning, and Characterization of Dextransucrase LmDexA and Its Active Truncated Mutant from Leuconostoc mesenteroides NN710” (Molecules, 2024)

Target: T1, ΔN190LmDexA (Leuconostoc mesenteroides, UniProt Q03VD8)
T1 construct: gene LEUM_1747; N-terminal 190 residues removed (signal peptide and variable region); 1372 aa, theoretical 150 kDa; borders 191-1562 derived from printed lengths
Experiment: DNS assay of released reducing sugar (fructose), Michaelis-Menten fit
Format: biochemical
Conditions: pH 5.6, 30 °C, 20 mM sodium acetate, 3-300 mM sucrose, 30 min

T1 sequence (Q03VD8 entry or part of it, stated change not applied): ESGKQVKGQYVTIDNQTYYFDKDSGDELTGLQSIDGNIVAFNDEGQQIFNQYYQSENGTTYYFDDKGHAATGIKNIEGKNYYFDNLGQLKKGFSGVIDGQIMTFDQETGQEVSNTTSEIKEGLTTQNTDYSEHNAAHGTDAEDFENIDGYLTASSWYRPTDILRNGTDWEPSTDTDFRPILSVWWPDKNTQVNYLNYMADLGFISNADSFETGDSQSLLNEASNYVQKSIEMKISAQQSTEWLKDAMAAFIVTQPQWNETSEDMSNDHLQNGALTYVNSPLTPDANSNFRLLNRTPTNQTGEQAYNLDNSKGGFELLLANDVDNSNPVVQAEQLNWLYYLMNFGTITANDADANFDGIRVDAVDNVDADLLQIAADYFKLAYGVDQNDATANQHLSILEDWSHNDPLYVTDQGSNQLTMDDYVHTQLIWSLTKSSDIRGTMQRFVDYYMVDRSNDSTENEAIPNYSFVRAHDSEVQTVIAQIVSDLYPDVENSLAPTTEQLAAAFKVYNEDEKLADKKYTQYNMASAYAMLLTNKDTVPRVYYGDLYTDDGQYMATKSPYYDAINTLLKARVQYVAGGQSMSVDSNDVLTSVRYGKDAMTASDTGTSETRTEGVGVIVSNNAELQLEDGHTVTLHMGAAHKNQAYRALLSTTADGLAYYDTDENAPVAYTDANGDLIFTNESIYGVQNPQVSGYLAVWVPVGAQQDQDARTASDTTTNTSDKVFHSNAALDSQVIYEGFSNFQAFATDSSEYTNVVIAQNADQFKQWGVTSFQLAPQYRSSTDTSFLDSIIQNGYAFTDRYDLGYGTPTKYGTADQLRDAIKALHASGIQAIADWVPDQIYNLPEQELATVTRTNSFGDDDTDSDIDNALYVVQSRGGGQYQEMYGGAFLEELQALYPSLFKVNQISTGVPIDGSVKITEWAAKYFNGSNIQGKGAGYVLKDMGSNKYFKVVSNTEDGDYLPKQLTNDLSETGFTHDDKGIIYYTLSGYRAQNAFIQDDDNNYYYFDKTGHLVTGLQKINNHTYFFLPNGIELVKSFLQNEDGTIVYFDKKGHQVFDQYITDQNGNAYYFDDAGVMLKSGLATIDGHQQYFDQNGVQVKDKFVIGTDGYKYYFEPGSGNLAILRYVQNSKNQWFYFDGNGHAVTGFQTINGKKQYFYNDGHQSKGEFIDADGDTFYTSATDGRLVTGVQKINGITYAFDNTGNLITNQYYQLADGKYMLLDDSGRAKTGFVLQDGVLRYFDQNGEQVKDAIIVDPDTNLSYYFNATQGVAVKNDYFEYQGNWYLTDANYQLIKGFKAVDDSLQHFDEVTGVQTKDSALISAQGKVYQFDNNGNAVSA

- Km: 13.7 mM
SMILES: OC[C@H]1O[C@@](CO)(O[C@H]2O[C@H](CO)[C@@H](O)[C@H](O)[C@H]2O)[C@@H](O)[C@@H]1O [sucrose]
